For the data set the following is noted: room temperature (20-35° C.), atmospheric pressure.

Read-outs that look alike come from different tables or passages of the source.

In the case of benzalkonium-perchlorate [BNZ-ClO4], the ClO4 equilibrium conc. reads like this: (matrix: deionized water) 0.20 mM; (matrix: ethanol) 231 mM; (matrix: salt water) 0.81 mM.

The values above are taken from patent publication US12195372B2 (priority 2018, dated 2025).
